≈ marks a conversion by molar mass, not a printed value. Calls of active or inactive are those of the source. The calls are words filed in the database; no cut-off is given here.
Tests used:
Staphylococcus aureus [1] = experiment: Antibacterial activity against methicillin resistant Staphylococcus aureus; format: functional
Staphylococcus aureus [2] = experiment: Antibacterial activity against methicilin-resistant Staphylococcus aureus assessed as inhibition of bacterial growth incubated for 24 hrs by broth microdilution method; format: functional
Staphylococcus aureus [3] = experiment: Antibacterial activity against vancomycin intermediate Staphylococcus aureus assessed as inhibition of bacterial growth incubated for 24 hrs by broth microdilution method; format: functional
Staphylococcus aureus [4] = experiment: Antimicrobial activity against Staphylococcus aureus ATCC 29213 assessed as inhibition of bacterial growth incubated for 16 to 18 hrs by CLSI protocol based Muller Hinton broth assay; format: functional; settings: time 16-18 hrs
Enterococcus faecalis = experiment: Antimicrobial activity against Enterococcus faecalis ATCC 29212 assessed as inhibition of bacterial growth incubated for 16 to 18 hrs by CLSI protocol based Muller Hinton broth assay; format: functional; settings: time 16-18 hrs
Escherichia coli [5] = experiment: Antimicrobial activity against Escherichia coli ATCC 25922 assessed as inhibition of bacterial growth incubated for 16 to 18 hrs by CLSI protocol based Muller Hinton broth assay; format: functional; settings: time 16-18 hrs
[6] = system: Stenotrophomonas maltophilia; experiment: Antimicrobial activity against Stenotrophomonas maltophilia ATCC 17808 assessed as inhibition of bacterial growth incubated for 16 to 18 hrs by CLSI protocol based Muller Hinton broth assay; format: functional; settings: time 16-18 hrs
[7] = Hemolytic activity in defibrinated sheep RBC incubated for 1 hrs; format: toxicity, cell-based, Ovis aries, Erythrocyte; settings: defibrinated sheep red blood cells
[8] = Hemolytic activity in defibrinated sheep RBC assessed as hemolysis rate at 1280 microg/ml incubated for 1 hrs relative to control; format: toxicity, cell-based, Ovis aries, Erythrocyte; settings: defibrinated sheep red blood cells, at 1280 µg/mL, read-out: Activity
Staphylococcus aureus [9] = experiment: Antibacterial activity against Staphylococcus aureus assessed as inhibition of bacterial growth incubated for 6 hrs in presence of defibrinated sheep 50% plasma by CLSI protocol based Muller Hinton broth assay; format: functional
Staphylococcus aureus [10] = experiment: Antibacterial activity against Staphylococcus aureus assessed as inhibition of bacterial growth incubated for 6 hrs in presence of 50% fetal bovine plasma by CLSI protocol based Muller Hinton broth assay; format: functional
Staphylococcus aureus [11] = experiment: Antibacterial activity against Staphylococcus aureus assessed as inhibition of bacterial growth by measuring fold change in MIC incubated for 6 hrs in presence of defibrinated sheep 50% plasma by CLSI protocol based Muller Hinton broth assay; format: functional
Staphylococcus aureus [12] = experiment: Antibacterial activity against Staphylococcus aureus assessed as inhibition of bacterial growth by measuring fold change in MIC incubated for 6 hrs in presence of 50% fetal bovine plasma by CLSI protocol based Muller Hinton broth assay; format: functional
Staphylococcus aureus [13] = experiment: Antibacterial activity against Staphylococcus aureus assessed as inhibition of bacterial growth by measuring fold change in MIC incubated for 6 hrs in presence of 50% fetal bovine serum by CLSI protocol based Muller Hinton broth assay; format: functional
Staphylococcus aureus [14] = experiment: Antibacterial activity against Staphylococcus aureus assessed as reduction in bacterial colony incubated upto 24 hrs by time-kill kinetics assay; format: functional
Staphylococcus aureus [15] = experiment: Antibacterial activity against Staphylococcus aureus assessed as reduction in bacterial colony at 8 times of MIC incubated for 1 hrs by time-kill kinetics assay; format: functional, organism-based
Escherichia coli [16] = experiment: Antibacterial activity against Escherichia coli assessed as reduction in bacterial colony at 2 times of MIC incubated for 2 to 24 hrs by time kill kinetics assay; format: functional, organism-based; settings: time 2-24 hrs
Staphylococcus aureus [17] = experiment: Antimicrobial activity against Staphylococcus aureus ATCC 29213 incubated for 16 to 18 hrs and measured before 9th passage by CLSI protocol based Muller Hinton broth assay; format: functional, organism-based
Staphylococcus aureus [18] = experiment: Drug resistance, ratio of MIC for Staphylococcus aureus ATCC 29213 incubated for 16 to 18 hrs and measured after 16 passages to MIC for Staphylococcus aureus ATCC 29213 incubated for 16 to 18 hrs; format: functional
Escherichia coli [19] = experiment: Antibacterial activity against Escherichia coli ATCC 25922 incubated for 16 to 18 hrs and measured before 7th passage by CLSI protocol based Muller Hinton broth assay; format: functional, organism-based
Escherichia coli [20] = experiment: Drug resistance, ratio of MIC for Escherichia coli ATCC 25922 incubated for 16 to 18 hrs and measured after 25 passage to MIC for Escherichia coli ATCC 25922 incubated for 16 to 18 hrs; format: functional
Staphylococcus aureus [21] = experiment: Antibacterial activity against persistent Staphylococcus aureus assessed as reduction in bacterial colony at 16 times of MIC measured for 24 hrs by CLSI protocol based Muller Hinton broth assay; format: functional, organism-based
Staphylococcus aureus [22] = experiment: Anti-biofilm activity against Staphylococcus aureus assessed as reduction in bacterial density at 16 times of MIC incubated for 24 hrs by confocal laser scanning microscopic analysis; format: functional, organism-based
Staphylococcus aureus [23] = experiment: Anti-biofilm activity against Staphylococcus aureus assessed as reduction in extended colonies in biofilm at 16 times of MIC incubated for 24 hrs by confocal laser scanning microscopic analysis; format: functional, organism-based
Staphylococcus aureus [24] = experiment: Anti-biofilm activity against Staphylococcus aureus assessed as reduction in bacteria in biofilm at 32 times of MIC incubated for 24 hrs by confocal laser scanning microscopic analysis; format: functional, organism-based
Staphylococcus aureus [25] = experiment: Anti-biofilm activity against Staphylococcus aureus assessed as punctate distribution of bacteria in biofilm at 32 times of MIC incubated for 24 hrs by confocal laser scanning microscopic analysis; format: functional, organism-based
Cell membrane [26] = experiment: Induction of Cytoplasmic membrane depolarization in Staphylococcus aureus at 8 to 16 microg/ml incubated for 15 mins by fluorescence microplate reader; format: cell membranes; settings: dose 8-16 µg/ml
Cell membrane [27] = experiment: Induction of inner membrane permeabilization in Staphylococcus aureus assessed as fluorescence intensity at 16 microg/ml incubated for 15 mins by PI staining based microplate reader; format: cell membranes; settings: dose 16.0 µg/ml
Staphylococcus aureus [28] = experiment: Induction of morphological changes in Staphylococcus aureus assessed as disintegrated membrane blocks at 8 times of MIC incubated for 4 hrs by scanning electron microscopic analysis; format: functional, organism-based
Staphylococcus aureus [29] = experiment: Induction of morphological changes in Staphylococcus aureus assessed as appearance of aggregated membrane sheets at 8 times of MIC incubated for 4 hrs by scanning electron microscopic analysis; format: functional, organism-based
Staphylococcus aureus [30] = experiment: Induction of morphological changes in Staphylococcus aureus assessed as irregular spherical appearance at 8 times of MIC incubated for 4 hrs by scanning electron microscopic analysis; format: functional, organism-based
Escherichia coli [31] = experiment: Induction of morphological changes in Escherichia coli assessed as outer membrane damage at 8 times of MIC incubated for 4 hrs by scanning electron microscopic analysis; format: functional, organism-based
Escherichia coli [32] = experiment: Induction of morphological changes in Escherichia coli assessed as disintegration of rod shaped cells at 8 times of MIC incubated for 4 hrs by scanning electron microscopic analysis; format: functional, organism-based
Escherichia coli [33] = experiment: Induction of morphological changes in Escherichia coli assessed as shattering of rod shaped cells at 8 times of MIC incubated for 4 hrs by scanning electron microscopic analysis; format: functional, organism-based
Cell membrane [34] = experiment: Induction of cell membrane damage in Staphylococcus aureus assessed as nucleic acid leakage at 4 times of MIC incubated for 2 hrs by n ultra-micro-volume spectrophotometric analysis; format: cell membranes
Cell membrane [35] = experiment: Induction of cell membrane damage in Escherichia coli assessed as nucleic acid leakage at 4 times of MIC incubated for 2 hrs by n ultra-micro-volume spectrophotometric analysis; format: cell membranes
[36] = Cytotoxicity against rat HBZY-1 cells assessed as cell survival rate at 64 microg/ml incubated for 48 hrs by CCK8 assay relative to control; format: toxicity, cell-based; settings: at 64 µg/mL, read-out: Activity
[37] = Cytotoxicity against human SW620 cells assessed as cell survival rate at 64 microg/ml incubated for 48 hrs by CCK8 assay relative to control; format: toxicity, cell-based, SW-620; settings: at 64 µg/mL, read-out: Activity
Staphylococcus aureus [38] = experiment: Drug resistance, ratio of MIC for Staphylococcus aureus ATCC 29213 incubated for 16 to 18 hrs and measured after 2 passages to MIC for Staphylococcus aureus ATCC 29213 incubated for 16 to 18 hrs; format: functional

Work on `COc1c2c(cc(F)c1N1CCN(CC(=O)Nc3ncc([N+](=O)[O-])s3)CC1)C(=O)C(C(=O)O)=CC2C1CC1` (stereo not given) yielded an MIC (Staphylococcus aureus [1]) of 0.01 µg/mL (≈ 0.0183 µM).
In the case of `CCCCCCCC[n+]1ccc(CN[C@@]2(C)C[C@H](O[C@H]3[C@H](Oc4c5cc6cc4Oc4ccc(cc4Cl)[C@@H](O)[C@@H](NC(=O)[C@@H](CC(C)C)NC)C(=O)N[C@@H](CC(N)=O)C(=O)N[C@H]6C(=O)N[C@H]4C(=O)N[C@H](C(=O)N[C@@H](C(=O)O)c6cc(O)cc(O)c6-c6cc4ccc6O)[C@H](O)c4ccc(c(Cl)c4)O5)O[C@H](CO)[C@@H](O)[C@@H]3O)O[C@@H](C)[C@H]2O)cc1`, the MIC (Staphylococcus aureus [2]) is reported as 0.1 µM and the MIC (Staphylococcus aureus [3]) is reported as 0.11 µM.
Molecule `CCCCCCCCNC(=O)C[n+]1ccc(C(=O)N2CCN(c3cc4c(cc3F)c(=O)c(C(=O)O)cn4C3CC3)CC2)cc1.[Br-]` has an MIC (Staphylococcus aureus [4]) of 2 µg/mL, an MIC (Enterococcus faecalis) of 2 µg/mL and an MIC (Escherichia coli [5]) of 2 µg/mL. It also gave an MIC [6] of 8 µg/mL, an HC50 at 1 h [7] of over 1280 µg/mL and a hemolysis at 1 h, 1280 microg/ml [8] of 5.1%. For the same molecule, the MIC (Staphylococcus aureus [9]) was 4 µg/mL, the MIC (Staphylococcus aureus [10]) was 4 µg/mL and the “fold change (FC)” value (Staphylococcus aureus [11]) was 2. The “fold change (FC)” value (Staphylococcus aureus [12]) was 2, the “fold change (FC)” value (Staphylococcus aureus [13]) was 2 and the MIC (Staphylococcus aureus [14]) was 2 µg/mL. For the same molecule, the Activity (Staphylococcus aureus [15]) was “Active”, the Activity (Escherichia coli [16]) was “Active” and the Activity (Staphylococcus aureus [17]) was “Active”. For the same molecule, the Ratio (Staphylococcus aureus [18]) was 4, the Activity (Escherichia coli [19]) was “Active” and the Ratio (Escherichia coli [20]) was 2. For the same molecule, the Activity (Staphylococcus aureus [21]) was “Active”, the Activity (Staphylococcus aureus [22]) was “Active” and the Activity (Staphylococcus aureus [23]) was “Active”. The Activity (Staphylococcus aureus [24]) was “Active”, the Activity (Staphylococcus aureus [25]) was “Active” and the Activity (Cell membrane [26]) was “Active”. For the same molecule, the Flu intensity (Cell membrane [27]) was 300, the Activity (Staphylococcus aureus [28]) was “Active” and the Activity (Staphylococcus aureus [29]) was “Active”. For the same molecule, the Activity (Staphylococcus aureus [30]) was “Active”, the Activity (Escherichia coli [31]) was “Active” and the Activity (Escherichia coli [32]) was “Active”. For the same molecule, the Activity (Escherichia coli [33]) was “Active”, the Activity (Cell membrane [34]) was “Active” and the Activity (Cell membrane [35]) was “Active”. For the same molecule, the viability at 48 h, 64 microg/ml [36] was 96.9% and the viability at 48 h, 64 microg/ml [37] was 68.2%.
In the case of `CCn1cc(C(=O)O)c(=O)c2cc(F)c(N3CCNCC3)cc21` [NORFLOXACIN], the Ratio (Staphylococcus aureus [38]) is reported as 2 and the Ratio (Staphylococcus aureus [18]) is reported as 64.
